# The supplement of paper PMC6045584
# ± gives the standard deviation of the averaged measurements.
# Compound: CS(=O)(=O)c1ccc(C(=O)Nc2ccc(Cl)c(-c3ccccn3)c2)c(Cl)c1 [VISMODEGIB]
# Assay: surviving fraction relative to DMSO-only wells; higher = less growth inhibition
# Settings: 0.5 nM; exposure time: 5 days
# Procedure, shortened: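 Tumour cell lines were seeded in log phase at 250–500 cells per well into 384-well plates. Starting 24 hours later, inhibitors were present continuously for five days at 0.5, 1, 5, 10, 50, 100, 500 and 1000 nM. Surviving fraction, from CellTiter-Glo luminescence, is normalised to the median of DMSO-only wells. Three screens per line were required, with replicate Pearson r >0.7 and median Z' >0.3 for a line to be kept.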
row,Test System,surviving fraction
1,MDAMB134 BREAST,0.848 ± 0.089
2,C33A CERVIX,0.872 ± 0.066
3,SKBR3 BREAST,1.15 ± 0.085
4,MHM BONE,0.978 ± 0.04
5,VP229 BREAST,1.27 ± 0.025
6,SYO1 SYNOVIAL,0.953 ± 0.052
7,ZR751 BREAST,0.853 ± 0.06
8,KPD BONE,0.899 ± 0.045
9,SIHA CERVIX,0.961 ± 0.024
10,DU4475 BREAST,0.969 ± 0.25
11,BT549 BREAST,1.02 ± 0.047
12,COLO320DM LARGE INTESTINE,1.02 ± 0.063
13,T47D BREAST,0.993 ± 0.034
14,H23 LUNG,0.981 ± 0.01
15,NCIH441 LUNG,0.971 ± 0.018
16,HCT15 LARGE INTESTINE,0.966 ± 0.01
17,SCC90 HEADNECK,0.824 ± 0.014
18,MDAMB453 BREAST,0.926 ± 0.025
19,MG63 BONE,0.925 ± 0.035
20,A549 LUNG,0.979 ± 0.018
21,MDAMB468 BREAST,1.02 ± 0.064

# Same assay, conditions: 1 nM; exposure time: 5 days
row,Test System,surviving fraction
1,MDAMB134 BREAST,0.886 ± 0.14
2,C33A CERVIX,1.007 ± 0.0076
3,SKBR3 BREAST,0.954 ± 0.027
4,MHM BONE,1.018 ± 0.0098
5,VP229 BREAST,1.1 ± 0.065
6,SYO1 SYNOVIAL,0.978 ± 0.049
7,ZR751 BREAST,0.937 ± 0.16
8,KPD BONE,0.946 ± 0.088
9,SIHA CERVIX,1.08 ± 0.038
10,DU4475 BREAST,1.1 ± 0.28
11,BT549 BREAST,1.01 ± 0.12
12,COLO320DM LARGE INTESTINE,1.03 ± 0.12
13,T47D BREAST,0.965 ± 0.049
14,H23 LUNG,0.997 ± 0.043
15,NCIH441 LUNG,1.02 ± 0.11
16,HCT15 LARGE INTESTINE,1.04 ± 0.052
17,SCC90 HEADNECK,0.945 ± 0.051
18,MDAMB453 BREAST,0.966 ± 0.03
19,MG63 BONE,0.9747 ± 0.0063
20,A549 LUNG,0.9893 ± 0.0035
21,MDAMB468 BREAST,0.927 ± 0.056

# Same assay, conditions: 5 nM; exposure time: 5 days
row,Test System,surviving fraction
1,MDAMB134 BREAST,0.878 ± 0.057
2,C33A CERVIX,1.12 ± 0.087
3,SKBR3 BREAST,0.907 ± 0.059
4,MHM BONE,1.04 ± 0.035
5,VP229 BREAST,1.15 ± 0.13
6,SYO1 SYNOVIAL,0.992 ± 0.014
7,ZR751 BREAST,0.799 ± 0.15
8,KPD BONE,1.05 ± 0.078
9,SIHA CERVIX,1.03 ± 0.045
10,DU4475 BREAST,1 ± 0.1
11,BT549 BREAST,1.09 ± 0.15
12,COLO320DM LARGE INTESTINE,1.14 ± 0.081
13,T47D BREAST,1.01 ± 0.025
14,H23 LUNG,1.05 ± 0.03
15,NCIH441 LUNG,1.01 ± 0.032
16,HCT15 LARGE INTESTINE,0.998 ± 0.033
17,SCC90 HEADNECK,0.908 ± 0.092
18,MDAMB453 BREAST,0.951 ± 0.021
19,MG63 BONE,0.982 ± 0.023
20,A549 LUNG,1.01 ± 0.033
21,MDAMB468 BREAST,0.996 ± 0.058

# Same assay, conditions: 10 nM; exposure time: 5 days
row,Test System,surviving fraction
1,MDAMB134 BREAST,0.915 ± 0.062
2,C33A CERVIX,0.985 ± 0.061
3,SKBR3 BREAST,0.975 ± 0.09
4,MHM BONE,1.02 ± 0.027
5,VP229 BREAST,1.14 ± 0.082
6,SYO1 SYNOVIAL,0.994 ± 0.054
7,ZR751 BREAST,0.971 ± 0.12
8,KPD BONE,1.01 ± 0.017
9,SIHA CERVIX,1.06 ± 0.025
10,DU4475 BREAST,0.895 ± 0.29
11,BT549 BREAST,1.09 ± 0.15
12,COLO320DM LARGE INTESTINE,1.06 ± 0.069
13,T47D BREAST,0.988 ± 0.012
14,H23 LUNG,1.022 ± 0.0032
15,NCIH441 LUNG,1.05 ± 0.036
16,HCT15 LARGE INTESTINE,1.02 ± 0.072
17,SCC90 HEADNECK,1.01 ± 0.023
18,MDAMB453 BREAST,1.03 ± 0.043
19,MG63 BONE,0.993 ± 0.026
20,A549 LUNG,1.02 ± 0.045
21,MDAMB468 BREAST,0.957 ± 0.085
